Experimental data from patent US12037344B2, “NLRP3 modulators” (INNATE TUMOR IMMUNITY, INC., priority 2018, dated 2024).

What was measured:
TLR7 = molecular target: T1, TLR7 (Homo sapiens, UniProt Q9NYK1); test: In vitro human TLR7 binding reporter assay (HEK-Blue, NF-kB/AP1-inducible SEAP); type: cell-based; details: activity range class, read-out: TLR7 Agonist EC50
T1 construct: human HEK-Blue cells co-expressing a TLR7 or TLR8 gene
T1 sequence (Q9NYK1 27-1049): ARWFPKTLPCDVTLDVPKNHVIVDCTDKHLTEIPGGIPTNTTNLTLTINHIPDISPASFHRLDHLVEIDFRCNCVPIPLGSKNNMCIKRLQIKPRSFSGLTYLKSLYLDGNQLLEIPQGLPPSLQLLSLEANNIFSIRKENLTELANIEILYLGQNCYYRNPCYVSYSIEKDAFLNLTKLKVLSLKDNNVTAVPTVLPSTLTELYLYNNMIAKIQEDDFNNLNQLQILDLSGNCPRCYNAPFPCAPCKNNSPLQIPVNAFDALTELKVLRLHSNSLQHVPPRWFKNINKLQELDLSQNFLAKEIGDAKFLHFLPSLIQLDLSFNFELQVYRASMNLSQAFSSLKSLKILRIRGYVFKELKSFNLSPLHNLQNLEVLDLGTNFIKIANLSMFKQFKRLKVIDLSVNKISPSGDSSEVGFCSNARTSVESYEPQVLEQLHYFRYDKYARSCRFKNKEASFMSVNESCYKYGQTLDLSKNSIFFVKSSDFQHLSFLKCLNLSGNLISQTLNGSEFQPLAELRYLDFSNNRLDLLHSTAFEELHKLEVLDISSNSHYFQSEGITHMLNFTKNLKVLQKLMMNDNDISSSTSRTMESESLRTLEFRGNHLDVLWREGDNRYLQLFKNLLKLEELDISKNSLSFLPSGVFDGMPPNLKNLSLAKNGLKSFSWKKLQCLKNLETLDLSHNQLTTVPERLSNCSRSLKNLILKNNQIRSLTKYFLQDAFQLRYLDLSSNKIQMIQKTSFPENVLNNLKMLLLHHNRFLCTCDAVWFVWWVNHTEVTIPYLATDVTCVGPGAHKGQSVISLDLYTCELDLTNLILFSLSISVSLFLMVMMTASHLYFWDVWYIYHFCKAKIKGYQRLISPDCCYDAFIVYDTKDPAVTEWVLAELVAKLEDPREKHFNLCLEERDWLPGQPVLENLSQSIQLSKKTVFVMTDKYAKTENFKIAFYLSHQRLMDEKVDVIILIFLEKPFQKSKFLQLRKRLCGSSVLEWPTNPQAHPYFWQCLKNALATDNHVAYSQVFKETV
Procedure, shortened: (§1)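 EC50s come from NF-kB/AP1-driven SEAP secretion in HEK-Blue cells expressing TLR7 or TLR8, measured with Quanti-Blue after an 18 h compound incubation. Maximal response is defined by a 50 μM reference standard.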

TLR8 = molecular target: T2, TLR8 (Homo sapiens, UniProt Q9NR97); test: In vitro human TLR8 binding reporter assay (HEK-Blue, NF-kB/AP1-inducible SEAP); type: cell-based; details: activity range class, read-out: TLR8 Agonist EC50
T2 construct: human HEK-Blue cells co-expressing a TLR7 or TLR8 gene
T2 sequence (Q9NR97 27-1041): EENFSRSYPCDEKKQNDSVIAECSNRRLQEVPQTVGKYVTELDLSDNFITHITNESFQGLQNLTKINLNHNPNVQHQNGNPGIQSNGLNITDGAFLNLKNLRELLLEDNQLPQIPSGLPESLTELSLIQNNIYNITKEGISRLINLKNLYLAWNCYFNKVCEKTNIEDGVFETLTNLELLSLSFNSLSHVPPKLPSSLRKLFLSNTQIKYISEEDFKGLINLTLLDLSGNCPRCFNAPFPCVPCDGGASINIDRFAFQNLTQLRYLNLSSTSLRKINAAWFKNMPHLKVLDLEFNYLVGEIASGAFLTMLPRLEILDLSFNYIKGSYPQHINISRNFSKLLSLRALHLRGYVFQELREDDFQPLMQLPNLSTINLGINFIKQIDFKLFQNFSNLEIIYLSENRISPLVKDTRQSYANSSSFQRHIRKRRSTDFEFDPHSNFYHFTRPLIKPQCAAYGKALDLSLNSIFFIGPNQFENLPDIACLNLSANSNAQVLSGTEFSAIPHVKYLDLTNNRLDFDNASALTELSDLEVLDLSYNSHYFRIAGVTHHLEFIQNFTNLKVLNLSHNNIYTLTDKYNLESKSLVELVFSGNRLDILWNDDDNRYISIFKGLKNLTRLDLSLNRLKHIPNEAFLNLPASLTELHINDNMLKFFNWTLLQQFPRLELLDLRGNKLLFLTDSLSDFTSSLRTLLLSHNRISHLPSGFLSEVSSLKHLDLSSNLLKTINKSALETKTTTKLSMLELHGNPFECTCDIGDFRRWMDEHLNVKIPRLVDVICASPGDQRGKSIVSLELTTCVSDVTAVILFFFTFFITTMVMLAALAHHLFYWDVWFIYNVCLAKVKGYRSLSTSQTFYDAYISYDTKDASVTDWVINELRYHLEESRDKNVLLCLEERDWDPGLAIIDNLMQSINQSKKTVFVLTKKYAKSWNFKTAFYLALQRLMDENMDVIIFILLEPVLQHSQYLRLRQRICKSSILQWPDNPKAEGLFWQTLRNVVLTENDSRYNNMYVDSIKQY
Procedure, shortened: as §1

THP-1 cells = test: Measurement of IL-1β production, hTRF protocol (second alternative procedure), THP-1 cells; type: cell-based, human; details: Homo sapiens, THP-1, IL-1β production, human; read-out: NLRP3 hILIB EC50
Procedure, shortened: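 Compounds, dilution series starting at a final 10 μM, were incubated 2 hours at 37° C with PMA-differentiated THP-1 cells (50 ng/ml overnight; 50,000 cells/well, 2% FBS RPMI). Released IL-1β quantified in supernatant by hTRF kit with 1:40 antibody dilution, 4° C overnight, 665/615 nm ratio.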

For `CC(Cn1cc2c(N)nc3cc(-c4ccn[nH]4)ccc3c2n1)NC(=O)c1ccc(F)cn1` (stereo not drawn) [Example 294], the EC50 (TLR7) was > 100 µM, the EC50 (TLR8) was > 100 µM and the EC50 (THP-1 cells) was 0.43 µM.

For `CC(Cn1cc2c(N)nc3cc(-c4ccn[nH]4)ccc3c2n1)NC(=O)c1cc(F)ccn1` (stereo not drawn) [Example 295], the EC50 (TLR7) was > 100 µM, the EC50 (TLR8) was > 100 µM and the EC50 (THP-1 cells) was 0.42 µM.

For `COCC(=O)NC(C)Cn1cc2c(N)nc3cc(-c4ccn[nH]4)ccc3c2n1` (stereo not drawn) [Example 296], the EC50 (TLR7) was > 100 µM, the EC50 (TLR8) was > 100 µM and the EC50 (THP-1 cells) was 1.7 µM.

`CCC(=O)NC(C)Cn1cc2c(N)nc3cc(-c4ccn[nH]4)ccc3c2n1` (stereo not drawn) [Example 297] was tested, and the EC50 (TLR7) was > 100 µM, the EC50 (TLR8) was > 100 µM and the EC50 (THP-1 cells) was 2.83 µM.

With `CCOCC(=O)NC(C)Cn1cc2c(N)nc3cc(-c4ccn[nH]4)ccc3c2n1` (stereo not drawn) [Example 298] the EC50 (TLR7) was > 100 µM, the EC50 (TLR8) was > 100 µM and the EC50 (THP-1 cells) was 4.32 µM.

With `CC(Cn1cc2c(N)nc3cc(-c4ccn[nH]4)ccc3c2n1)NS(C)(=O)=O` (stereo not drawn) [Example 301] the EC50 (TLR7) was > 100 µM, the EC50 (TLR8) was > 100 µM and the EC50 (THP-1 cells) was 1.4 µM.

`CC(Cn1ncc2c(N)nc3cc(-c4cc[nH]n4)ccc3c21)NS(C)(=O)=O` (stereo not drawn) [Example 302] was tested, and the EC50 (TLR7) was > 100 µM, the EC50 (TLR8) was > 100 µM and the EC50 (THP-1 cells) was 3.49 µM.

`COCCCn1cc2c(N)nc3cc(-c4cc[nH]n4)ccc3c2n1` [Example 303] was tested, and the EC50 (TLR7) was > 100 µM, the EC50 (TLR8) was > 100 µM and the EC50 (THP-1 cells) was 0.21 µM.

For `Nc1nc2cc(-c3cc[nH]n3)ccc2c2nn(CCN3CCCC3)cc12` [Example 304], the EC50 (TLR7) was > 100 µM, the EC50 (TLR8) was > 100 µM and the EC50 (THP-1 cells) was 0.66 µM.

In the case of `CCCCn1cc2c(N)nc3cc(-c4cc[nH]n4)ccc3c2n1` [Example 305], the EC50 (TLR7) is reported as > 100 µM, the EC50 (TLR8) is reported as > 100 µM and the EC50 (THP-1 cells) is reported as 0.29 µM.

`COCC(O)Cn1ncc2c(N)nc3cc(-c4cc[nH]n4)ccc3c21` (stereo not drawn) [Example 306] was tested, and the EC50 (TLR7) was > 100 µM, the EC50 (TLR8) was > 100 µM and the EC50 (THP-1 cells) was 1.26 µM.

With `COCC(O)Cn1cc2c(N)nc3cc(-c4cc[nH]n4)ccc3c2n1` (stereo not drawn) [Example 307] the EC50 (TLR7) was > 100 µM, the EC50 (TLR8) was > 100 µM and the EC50 (THP-1 cells) was 0.43 µM.

With `C[C@H](CO)Cn1cc2c(N)nc3cc(-c4cc[nH]n4)ccc3c2n1` [Example 308] the EC50 (TLR7) was > 100 µM, the EC50 (TLR8) was > 100 µM and the EC50 (THP-1 cells) was 0.41 µM.

`Nc1nc2cc(-c3cc[nH]n3)ccc2c2nn(CCOCCO)cc12` [Example 309] was tested, and the EC50 (TLR7) was > 100 µM, the EC50 (TLR8) was > 100 µM and the EC50 (THP-1 cells) was 0.75 µM.

In the case of `COCCOCCn1cc2c(N)nc3cc(-c4cc[nH]n4)ccc3c2n1` [Example 310], the EC50 (TLR7) is reported as > 100 µM, the EC50 (TLR8) is reported as > 100 µM and the EC50 (THP-1 cells) is reported as 0.75 µM.

With `Nc1nc2cc(-c3cc[nH]n3)ccc2c2c1cnn2C1CCOCC1` [Example 311] the EC50 (TLR7) was > 100 µM, the EC50 (TLR8) was > 100 µM and the EC50 (THP-1 cells) was 0.71 µM.

In the case of `Nc1nc2cc(-c3cc[nH]n3)ccc2c2nn(C3CCCOC3)cc12` (stereo not drawn) [Example 312], the EC50 (TLR7) is reported as > 100 µM, the EC50 (TLR8) is reported as > 100 µM and the EC50 (THP-1 cells) is reported as 0.22 µM.

With `CC(C)(CO)Cn1cc2c(N)nc3cc(-c4cc[nH]n4)ccc3c2n1` [Example 313] the EC50 (TLR7) was > 100 µM, the EC50 (TLR8) was > 100 µM and the EC50 (THP-1 cells) was 0.26 µM.

`Nc1nc2cc(-c3cc[nH]n3)ccc2c2nn(C3CCCCC3O)cc12` (stereo not drawn) [Example 317] was tested, and the EC50 (TLR7) was > 100 µM, the EC50 (TLR8) was > 100 µM and the EC50 (THP-1 cells) was 2.42 µM.
